Data on 19 compounds can be found in ChEMBL document CHEMBL6074692, “Design, synthesis, and evaluation of novel benzofuran and pyrazole-based derivatives as dual AChE/BuChE inhibitors with antioxidant properties for Alzheimer's disease management” (Eur J Med Chem, 2025).

In brackets after ≈: the same amount, converted by molar mass. Activity calls are given as the source filed them. No cut-off for these calls is given here.

In one data set the target is Cholinesterase (Homo sapiens, UniProt P06276). In words: Inhibition of BuChE (unknown origin).
Sequence of Cholinesterase (P06276 whole entry): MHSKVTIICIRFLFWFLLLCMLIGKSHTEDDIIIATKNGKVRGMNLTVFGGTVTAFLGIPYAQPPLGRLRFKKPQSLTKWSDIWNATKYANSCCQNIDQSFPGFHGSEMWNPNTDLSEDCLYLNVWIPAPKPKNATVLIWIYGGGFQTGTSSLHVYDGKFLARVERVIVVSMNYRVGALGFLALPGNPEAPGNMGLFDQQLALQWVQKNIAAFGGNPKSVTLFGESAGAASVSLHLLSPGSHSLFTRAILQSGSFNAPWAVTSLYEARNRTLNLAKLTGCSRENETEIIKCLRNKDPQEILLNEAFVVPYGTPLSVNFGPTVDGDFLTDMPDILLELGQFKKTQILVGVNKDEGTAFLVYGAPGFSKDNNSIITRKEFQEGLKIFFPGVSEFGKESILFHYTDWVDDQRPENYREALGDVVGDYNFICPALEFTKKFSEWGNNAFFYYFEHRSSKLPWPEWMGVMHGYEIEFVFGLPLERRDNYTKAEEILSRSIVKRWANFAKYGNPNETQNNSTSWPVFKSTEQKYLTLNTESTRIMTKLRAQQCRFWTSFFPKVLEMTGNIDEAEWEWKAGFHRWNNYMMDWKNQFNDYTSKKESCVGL
The nature of data set [1]: Antioxidant activity assessed as DPPH radical scavenging activity. It is filed as functional.
Data set [2] concerns the target T1, Acetylcholinesterase (Homo sapiens, UniProt P22303). Briefly: Inhibition of AChE (unknown origin) by Ellman's method.
The nature of data set [3]: Toxicity in male Wistar rat assessed as haematocrit level at 10 mg/kg, po (reference value: 39.01 +/- 1.12 %). The following applies: in vivo. The class given is organism-based.
Data set [4] can be described thus: Toxicity in male Wistar rat assessed as urea level at 10 mg/kg, po (reference value: 29.89 +/- 1.84 mg/dL). It is filed as organism-based. The following applies: in vivo.
Data set [5] in a line: Toxicity in male Wistar rat assessed as albumin level at 10 mg/kg, po (reference value: […]). The following applies: in vivo. It is filed as organism-based.
A short description of data set [6]: Toxicity in male Wistar rat assessed as creatinine level at 10 mg/kg, po (reference value: 0.68 +/- 0.1 mg/dL). It is filed as organism-based. As to conditions: in vivo.
A short description of data set [7]: Toxicity in male Wistar rat assessed as RDW-CV level at 10 mg/kg, po (reference value: 16.93 +/- 1.69 %). The class given is organism-based. As to conditions: in vivo.
A short description of data set [8]: Chronic toxicity in male Wistar rat assessed as drug tolerance at 10 mg/kg, po measured after 1 month. The class given is organism-based. As to conditions: in vivo, 730 h, time 1 months.
A short description of data set [9]: Toxicity in male Wistar rat assessed as MCV level at 10 mg/kg, po (reference value: 59.92 +/- 2.2 fL). The class given is organism-based. The following applies: in vivo.
Data set [10] in a line: Chronic toxicity in male Wistar rat assessed as negative side effects at 10 mg/kg, po measured after 1 month. It is filed as organism-based. As to conditions: in vivo, 730 h, time 1 months.
Data set [11] in a line: Toxicity in male Wistar rat assessed as MPV level at 10 mg/kg, po (reference value: 7.01 +/- 0.28 fL). The class given is organism-based. As to conditions: in vivo.
The target of data set [12] is T1, Acetylcholinesterase. Briefly: Mixed inhibition of AChE (unknown origin).
A short description of data set [13]: Toxicity in male Wistar rat assessed as WBC level at 10 mg/kg, po (reference value: 4.60 +/- 0.61 10^3/cmm). The following applies: in vivo. The class given is organism-based.
A short description of data set [14]: Toxicity in male Wistar rat assessed as RBC level measured per million cells at 10 mg/kg, po (reference value: 6.96 +/- 0.45 /cm). It is filed as organism-based. The following applies: in vivo.
A short description of data set [15]: Toxicity in male Wistar rat assessed as total bilirubin level at 10 mg/kg, po (reference value: 0.68 +/- 0.11 mg/dL). The class given is organism-based. As to conditions: in vivo.
Data set [16] in a line: Toxicity in male Wistar rat assessed as ALP level at 10 mg/kg, po (reference value: 137.18 +/- 7.04 U/L). It is filed as organism-based. The following applies: in vivo.
Data set [17] in a line: Toxicity in male Wistar rat assessed as AST level at 10 mg/kg, po (reference value: 78.16 +/- 9.37 U/L). The following applies: in vivo. It is filed as organism-based.
The nature of data set [18]: Toxicity in male Wistar rat assessed as decrease in proliferation of Kupffer cells at 10 mg/kg, po by H and E staining based analysis. It is filed as organism-based. As to conditions: in vivo.
The nature of data set [19]: Toxicity in male Wistar rat assessed as histopathological change in kidney at 10 mg/kg, po by H and E staining based analysis. It is filed as organism-based. The following applies: in vivo.
The nature of data set [20]: Toxicity in male Wistar rat assessed as MCHC level at 10 mg/kg, po (reference value: 32.52 +/- 2.48 g/dL). It is filed as organism-based. As to conditions: in vivo.
A short description of data set [21]: Toxicity in male Wistar rat assessed as ALT level at 10 mg/kg, po (reference value: 42.18 +/- 3.35 U/L). The class given is organism-based. As to conditions: in vivo.
Data set [22] in a line: Toxicity in male Wistar rat assessed as histological change in renal parenchyma at 10 mg/kg, po by H and E staining based analysis. It is filed as organism-based. The following applies: in vivo.
Data set [23] is described as follows: Toxicity in male Wistar rat assessed as MCH level at 10 mg/kg, po (reference value: 18.50 +/- 1.52 pg). The class given is organism-based. The following applies: in vivo.
Data set [24] in a line: Toxicity in male Wistar rat assessed as HB level at 10 mg/kg, po (reference value: 13.11 +/- 0.48 g/dL). As to conditions: in vivo. It is filed as organism-based.

T1 sequence (P22303 whole entry): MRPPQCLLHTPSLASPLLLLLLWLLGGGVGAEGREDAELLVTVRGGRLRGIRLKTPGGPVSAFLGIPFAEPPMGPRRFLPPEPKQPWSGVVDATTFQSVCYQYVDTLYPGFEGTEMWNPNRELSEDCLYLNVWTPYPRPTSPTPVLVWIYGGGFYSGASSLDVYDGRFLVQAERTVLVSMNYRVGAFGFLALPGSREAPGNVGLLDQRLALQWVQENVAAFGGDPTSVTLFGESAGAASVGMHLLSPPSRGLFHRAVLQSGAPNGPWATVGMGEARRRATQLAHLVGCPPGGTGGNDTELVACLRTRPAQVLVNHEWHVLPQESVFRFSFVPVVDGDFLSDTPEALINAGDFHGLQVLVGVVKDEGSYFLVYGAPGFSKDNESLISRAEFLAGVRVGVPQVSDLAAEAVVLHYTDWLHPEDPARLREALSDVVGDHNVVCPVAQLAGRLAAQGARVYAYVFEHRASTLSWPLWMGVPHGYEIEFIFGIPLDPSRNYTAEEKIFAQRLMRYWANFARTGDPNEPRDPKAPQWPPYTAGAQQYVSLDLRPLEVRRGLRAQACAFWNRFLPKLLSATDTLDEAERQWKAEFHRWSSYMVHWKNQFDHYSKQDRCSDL

Turning to `Cc1ccc(NC(=O)COc2ccc(O)c(-c3cn[nH]c3-c3ccc(C)cc3)c2)cc1`, the figures for the IC50 (on Cholinesterase; in data set [1]; against Acetylcholinesterase [2]) were 8.63 µM, 4.26 µg/mL (≈ 10.3 µM) and 4.76 µM, respectively.

Take `O=C(COc1ccc(O)c(-c2cn[nH]c2-c2ccccc2)c1)Nc1ccc(Cl)cc1`: the IC50 in data set [1] is 2.59 µg/mL (≈ 6.17 µM); at Acetylcholinesterase [2] it was 40.5 µM.

As for `Cc1ccc(C(=O)c2coc3ccc(OCC(=O)Nc4ccccc4)cc23)cc1`, the results for the IC50 (against Cholinesterase; in data set [1]; on Acetylcholinesterase [2]) were 18.6 µM, 363 µg/mL (≈ 942 µM) and 3.22 µM, respectively.

Turning to `Cc1ccc(NC(=O)COc2ccc3occ(C(=O)c4ccc(C)cc4)c3c2)cc1`, the IC50 in data set [1] is 240 µg/mL (≈ 601 µM); on Acetylcholinesterase [2] it was 59.3 µM.

As for `O=C(COc1ccc2occ(C(=O)c3ccc(Cl)cc3)c2c1)Nc1ccccc1`, the IC50 was 1.26 µM at Cholinesterase, 153 µg/mL (≈ 377 µM) in [1] and 0.961 µM against Acetylcholinesterase [2].

In the case of `O=C1O[C@H]([C@@H](O)CO)C(O)=C1O` [ASCORBIC ACID], the IC50 in data set [1] was found to be 2.85 µg/mL (≈ 16.2 µM).

As for `O=C(COc1ccc2occ(C(=O)c3ccccc3)c2c1)Nc1ccc(Cl)cc1`, the IC50 was 132 µg/mL (≈ 325 µM) in data set [1] and 40.6 µM at Acetylcholinesterase [2].

As to `Cc1ccc(C(=O)c2coc3ccc(OCC(=O)Nc4ccc(Cl)cc4)cc23)cc1`, the half-maximal inhibitory concentration (IC50) in data set [1] is 732 µg/mL (≈ 1740 µM); on Acetylcholinesterase [2], 52 µM.

For the compound `O=C(COc1ccc2occ(C(=O)c3ccc(Cl)cc3)c2c1)Nc1ccc(Cl)cc1`, the values for the 50% inhibitory concentration (IC50) (in data set [1]; against Acetylcholinesterase [2]) were 630 µg/mL (≈ 1430 µM) and 18.1 µM, respectively.

Consider `Cc1ccc(NC(=O)COc2ccc(O)c(-c3cn[nH]c3-c3ccccc3)c2)cc1`, for which the IC50 in data set [1] is 9.93 µg/mL (≈ 24.9 µM); against Acetylcholinesterase [2], 29.3 µM.

Take `Cc1ccc(NC(=O)COc2ccc3occ(C(=O)c4ccccc4)c3c2)cc1`: the IC50 in [1] is 262 µg/mL (≈ 680 µM); against Acetylcholinesterase [2], 21.4 µM.

Turning to `O=C(COc1ccc(O)c(-c2cn[nH]c2-c2ccc(Cl)cc2)c1)Nc1ccc(Cl)cc1`, the values for the 50% inhibitory concentration (IC50) (in [1]; at Acetylcholinesterase [2]) were 3.18 µg/mL (≈ 7 µM) and 119 µM, respectively.

As to `Cc1ccc(NC(=O)COc2ccc3occ(C(=O)c4ccc(Cl)cc4)c3c2)cc1`, the concentration for half-maximal inhibition (IC50) in data set [1] is 375 µg/mL (≈ 893 µM); at Acetylcholinesterase [2] it was 11.9 µM.

For `O=C(COc1ccc2occ(C(=O)c3ccccc3)c2c1)Nc1ccccc1`, the half-maximal inhibitory concentration (IC50) against Cholinesterase was 3.39 µM; in [1] it was 587 µg/mL (≈ 1580 µM); on Acetylcholinesterase [2] it was 2.07 µM.

Turning to `Cc1ccc(-c2[nH]ncc2-c2cc(OCC(=O)Nc3ccc(Cl)cc3)ccc2O)cc1`, the Activity in [3] was 38.32%; in [4], 30.25 mg/dL; in data set [5], 3.31 g/dL; in data set [6] it was 0.69 mg/dL; in [7], 16.64%; in data set [8] it was “Non-toxic”. Besides, the Activity in data set [9] is 60.31 fL; in data set [10] it was “Non-toxic”; in data set [11] it was 6.91 fL; in data set [13], 4.86 10^3/mm3; in data set [14], 7.14 10^6/mm3; in data set [15], 0.63 mg/dL. The Activity is 137.33 U/L in data set [16]; 76.11 U/L in data set [17]; “Toxic” in data set [18]; “Non-toxic” in data set [19]; 32.59 g/dL in data set [20]; 42.97 U/L in data set [21]. For the same compound, the values for the Activity entry in [22], in data set [23] and in data set [24] were “Non-toxic”, 19.51 pg and 13.28 g/dL, respectively. The inhibition entry on Acetylcholinesterase [12] was “Active”. Further, the values for the IC50 (at Cholinesterase; in data set [1]; against Acetylcholinesterase [2]) were 4.26 µM, 3.15 µg/mL (≈ 7.26 µM) and 2.86 µM, respectively.

Consider `Cc1ccc(NC(=O)COc2ccc(O)c(-c3cn[nH]c3-c3ccc(Cl)cc3)c2)cc1`, for which the concentration for half-maximal inhibition (IC50) in data set [1] is 4.94 µg/mL (≈ 11.4 µM); against Acetylcholinesterase [2], 43.4 µM.

In the case of `Cc1ccc(-c2[nH]ncc2-c2cc(OCC(=O)Nc3ccccc3)ccc2O)cc1`, the IC50 in [1] was 3.24 µg/mL (≈ 8.11 µM); at Acetylcholinesterase [2] it was 40.8 µM.

With `O=C(COc1ccc(O)c(-c2cn[nH]c2-c2ccc(Cl)cc2)c1)Nc1ccccc1`, the values for the IC50 (in data set [1]; against Acetylcholinesterase [2]) were 5.87 µg/mL (≈ 14 µM) and 13.7 µM, respectively.

On to `O=C(COc1ccc(O)c(-c2cn[nH]c2-c2ccccc2)c1)Nc1ccccc1`, for which the IC50 in data set [1] was 3.07 µg/mL (≈ 7.97 µM); against Acetylcholinesterase [2] it was 50.2 µM.
